The text below walks through data of ChEMBL document CHEMBL1201862, “PubChem BioAssay data set” (2004).

A short description of assay [1]: viability loss in Mcl1-dependent HMC-1-8 cells, dose response, selectivity assay for A1 inhibitor project, cell-based, luminescence, dry powder (AID 504415). It counts as functional. Conditions: Homo sapiens.
Assay [2] concerns INS1. Nature of the assay: protection of INS-1E cells from cytokine death, dose response, ATP luminescence, dry powder (AID 488844). It counts as functional, cell-based. The following applies: Rattus norvegicus.
In assay [3] the test system is INS1. Put plainly: inhibitors of cytokine-induced nitrite release, dose response, cell-based, Griess absorbance, INS-1E, dry powder, set 2 (AID 488868). It counts as functional. The following applies: Rattus norvegicus. Background: Griess reagent forms a coloured azo dye with nitrite.
The subject of assay [4] is INS1. Nature of the assay: protection from cytokine-induced mitochondrial depolarization, dose response, cell-based, INS-1E, JC-1 fluorescence ratio, dry powder (AID 488931). The following applies: Rattus norvegicus. Type of assay: functional.
The target in assay [5] is Peroxisome proliferator-activated receptor gamma/Nuclear receptor corepressor 2 (Homo sapiens, UniProt P37231+Q9Y618). Put plainly: Counterscreen for NR2E3 inverse agonists: TR-FRET-based biochemical high throughput dose response assay to identify inverse agonists of the interaction between peroxisome proliferator-activated receptor gamma (PPARg) and nuclear receptor co-repressor 2 (NCOR2). It counts as functional. In general terms: A counterscreen serves to expose hits that act by an unwanted route or on another target.

For assay [6], the target named is Photoreceptor-specific nuclear receptor (Homo sapiens, UniProt Q9Y5X4). Nature of the assay: NR2E3 inverse agonists, dose response, biochemical, TR-FRET (AID 463256). It counts as functional.
The test system of another assay is CHO-K1. Nature of the assay: Counterscreen for antagonists of the orexin 1 receptor (OX1R; HCRTR1): Homogeneous time resolved fluorescence (HTRF)-based cell-based dose response assay to identify antagonists of the parental CHO-K1 cell line. [Related pubchem assays (depositor defined):AID434989, AID435008, AID463079, AID485270, AID492963, AID492964, AID492965, AID493232, AID504699, AID504701]. Type of assay: functional. The following applies: Cricetulus griseus.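 Further: potency for inhibition of ATP-stimulated IP1 production as antagonists.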

The nature of assay [7]: Counterscreen for antagonists of the orexin 1 receptor (OX1R; HCRTR1): Fluorescence-based cell-based high throughput dose response assay to identify antagonists of the parental CHO cell line. [Related pubchem assays (depositor defined):AID434989, AID435008, AID463079, AID485270, AID492963, AID492964, AID492965, AID493232, AID504699, AID504701]. It counts as functional.
Assay [8] has as its target T1, Orexin/Hypocretin receptor type 1 (Homo sapiens, UniProt O43613). Put plainly: Homogeneous Time Resolved Fluorescence (HTRF)-based cell-based high throughput dose response assay for antagonists of the orexin 1 receptor (OX1R; HCRTR1). [Related pubchem assays (depositor defined):AID434989, AID435008, AID463079, AID485270, AID492963, AID492964, AID492965, AID493232, AID504717, AID504718]. It counts as functional.

For assay [9], the target named is T1, Orexin/Hypocretin receptor type 1. Put plainly: Fluorescence-based cell-based high throughput dose response assay for antagonists of the orexin 1 receptor (OX1R; HCRTR1). [Related pubchem assays (depositor defined):AID434989, AID435008, AID463079, AID485270, AID492963, AID492964, AID492965, AID493232, AID504717, AID504718]. It counts as functional.
Assay [10] has as its target T2, Orexin receptor type 2 (Homo sapiens, UniProt O43614). Put plainly: Counterscreen assay for antagonists of the orexin 1 receptor (OX1R; HCRTR1): Fluorescence-based cell-based dose response assay for antagonists of the orexin 2 receptor (OX2R; HCRTR2), run by assay provider. It counts as functional.
Assay [11] concerns the target T2, Orexin receptor type 2. Nature of the assay: Counterscreen assay for antagonists of the orexin 1 receptor (OX1R; HCRTR1): Homogeneous Time Resolved Fluorescence (HTRF)-based cell-based dose response assay for antagonists of the orexin 2 receptor (OX2R; HCRTR2), run by assay provider. It counts as functional.

Activity calls are given as the source filed them.

T1 sequence (O43613 whole entry): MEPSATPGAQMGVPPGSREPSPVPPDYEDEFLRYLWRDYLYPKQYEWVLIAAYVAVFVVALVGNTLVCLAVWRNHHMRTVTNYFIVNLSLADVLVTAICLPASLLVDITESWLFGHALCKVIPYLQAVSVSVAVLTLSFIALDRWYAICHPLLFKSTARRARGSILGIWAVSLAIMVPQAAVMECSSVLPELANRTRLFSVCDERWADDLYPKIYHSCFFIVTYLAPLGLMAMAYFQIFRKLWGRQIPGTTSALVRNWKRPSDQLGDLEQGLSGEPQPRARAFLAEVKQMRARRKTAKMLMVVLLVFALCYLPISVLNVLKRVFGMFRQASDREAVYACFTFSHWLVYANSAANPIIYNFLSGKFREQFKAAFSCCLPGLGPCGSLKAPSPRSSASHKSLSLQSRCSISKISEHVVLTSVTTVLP
T2 sequence (O43614 whole entry): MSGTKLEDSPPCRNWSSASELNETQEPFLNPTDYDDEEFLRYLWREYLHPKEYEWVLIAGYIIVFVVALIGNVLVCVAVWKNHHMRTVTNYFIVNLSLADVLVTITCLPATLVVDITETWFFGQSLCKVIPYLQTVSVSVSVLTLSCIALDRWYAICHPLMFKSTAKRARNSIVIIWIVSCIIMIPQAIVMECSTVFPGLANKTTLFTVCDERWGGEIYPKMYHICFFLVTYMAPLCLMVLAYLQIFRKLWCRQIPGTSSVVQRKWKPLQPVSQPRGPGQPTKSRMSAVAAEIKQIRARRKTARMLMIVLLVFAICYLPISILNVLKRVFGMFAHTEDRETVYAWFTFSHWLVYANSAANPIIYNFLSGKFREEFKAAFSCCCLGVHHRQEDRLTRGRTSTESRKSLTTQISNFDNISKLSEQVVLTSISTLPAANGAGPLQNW
Peroxisome proliferator-activated receptor gamma/Nuclear receptor corepressor 2, sequence (P37231 whole entry): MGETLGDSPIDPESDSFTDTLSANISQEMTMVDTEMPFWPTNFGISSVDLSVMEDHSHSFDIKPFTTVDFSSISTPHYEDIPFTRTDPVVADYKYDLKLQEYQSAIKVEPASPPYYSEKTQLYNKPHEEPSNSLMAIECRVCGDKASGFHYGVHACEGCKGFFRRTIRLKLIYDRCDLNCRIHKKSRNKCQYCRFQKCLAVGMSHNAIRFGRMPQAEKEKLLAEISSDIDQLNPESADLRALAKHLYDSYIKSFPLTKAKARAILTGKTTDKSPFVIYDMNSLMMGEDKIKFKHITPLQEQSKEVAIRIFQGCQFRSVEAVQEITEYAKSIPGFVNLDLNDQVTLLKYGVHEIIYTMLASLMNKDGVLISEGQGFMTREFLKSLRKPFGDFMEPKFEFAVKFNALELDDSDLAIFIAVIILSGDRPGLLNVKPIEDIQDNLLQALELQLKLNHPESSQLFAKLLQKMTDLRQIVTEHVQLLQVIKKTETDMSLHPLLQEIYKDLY
Peroxisome proliferator-activated receptor gamma/Nuclear receptor corepressor 2, sequence (Q9Y618 whole entry): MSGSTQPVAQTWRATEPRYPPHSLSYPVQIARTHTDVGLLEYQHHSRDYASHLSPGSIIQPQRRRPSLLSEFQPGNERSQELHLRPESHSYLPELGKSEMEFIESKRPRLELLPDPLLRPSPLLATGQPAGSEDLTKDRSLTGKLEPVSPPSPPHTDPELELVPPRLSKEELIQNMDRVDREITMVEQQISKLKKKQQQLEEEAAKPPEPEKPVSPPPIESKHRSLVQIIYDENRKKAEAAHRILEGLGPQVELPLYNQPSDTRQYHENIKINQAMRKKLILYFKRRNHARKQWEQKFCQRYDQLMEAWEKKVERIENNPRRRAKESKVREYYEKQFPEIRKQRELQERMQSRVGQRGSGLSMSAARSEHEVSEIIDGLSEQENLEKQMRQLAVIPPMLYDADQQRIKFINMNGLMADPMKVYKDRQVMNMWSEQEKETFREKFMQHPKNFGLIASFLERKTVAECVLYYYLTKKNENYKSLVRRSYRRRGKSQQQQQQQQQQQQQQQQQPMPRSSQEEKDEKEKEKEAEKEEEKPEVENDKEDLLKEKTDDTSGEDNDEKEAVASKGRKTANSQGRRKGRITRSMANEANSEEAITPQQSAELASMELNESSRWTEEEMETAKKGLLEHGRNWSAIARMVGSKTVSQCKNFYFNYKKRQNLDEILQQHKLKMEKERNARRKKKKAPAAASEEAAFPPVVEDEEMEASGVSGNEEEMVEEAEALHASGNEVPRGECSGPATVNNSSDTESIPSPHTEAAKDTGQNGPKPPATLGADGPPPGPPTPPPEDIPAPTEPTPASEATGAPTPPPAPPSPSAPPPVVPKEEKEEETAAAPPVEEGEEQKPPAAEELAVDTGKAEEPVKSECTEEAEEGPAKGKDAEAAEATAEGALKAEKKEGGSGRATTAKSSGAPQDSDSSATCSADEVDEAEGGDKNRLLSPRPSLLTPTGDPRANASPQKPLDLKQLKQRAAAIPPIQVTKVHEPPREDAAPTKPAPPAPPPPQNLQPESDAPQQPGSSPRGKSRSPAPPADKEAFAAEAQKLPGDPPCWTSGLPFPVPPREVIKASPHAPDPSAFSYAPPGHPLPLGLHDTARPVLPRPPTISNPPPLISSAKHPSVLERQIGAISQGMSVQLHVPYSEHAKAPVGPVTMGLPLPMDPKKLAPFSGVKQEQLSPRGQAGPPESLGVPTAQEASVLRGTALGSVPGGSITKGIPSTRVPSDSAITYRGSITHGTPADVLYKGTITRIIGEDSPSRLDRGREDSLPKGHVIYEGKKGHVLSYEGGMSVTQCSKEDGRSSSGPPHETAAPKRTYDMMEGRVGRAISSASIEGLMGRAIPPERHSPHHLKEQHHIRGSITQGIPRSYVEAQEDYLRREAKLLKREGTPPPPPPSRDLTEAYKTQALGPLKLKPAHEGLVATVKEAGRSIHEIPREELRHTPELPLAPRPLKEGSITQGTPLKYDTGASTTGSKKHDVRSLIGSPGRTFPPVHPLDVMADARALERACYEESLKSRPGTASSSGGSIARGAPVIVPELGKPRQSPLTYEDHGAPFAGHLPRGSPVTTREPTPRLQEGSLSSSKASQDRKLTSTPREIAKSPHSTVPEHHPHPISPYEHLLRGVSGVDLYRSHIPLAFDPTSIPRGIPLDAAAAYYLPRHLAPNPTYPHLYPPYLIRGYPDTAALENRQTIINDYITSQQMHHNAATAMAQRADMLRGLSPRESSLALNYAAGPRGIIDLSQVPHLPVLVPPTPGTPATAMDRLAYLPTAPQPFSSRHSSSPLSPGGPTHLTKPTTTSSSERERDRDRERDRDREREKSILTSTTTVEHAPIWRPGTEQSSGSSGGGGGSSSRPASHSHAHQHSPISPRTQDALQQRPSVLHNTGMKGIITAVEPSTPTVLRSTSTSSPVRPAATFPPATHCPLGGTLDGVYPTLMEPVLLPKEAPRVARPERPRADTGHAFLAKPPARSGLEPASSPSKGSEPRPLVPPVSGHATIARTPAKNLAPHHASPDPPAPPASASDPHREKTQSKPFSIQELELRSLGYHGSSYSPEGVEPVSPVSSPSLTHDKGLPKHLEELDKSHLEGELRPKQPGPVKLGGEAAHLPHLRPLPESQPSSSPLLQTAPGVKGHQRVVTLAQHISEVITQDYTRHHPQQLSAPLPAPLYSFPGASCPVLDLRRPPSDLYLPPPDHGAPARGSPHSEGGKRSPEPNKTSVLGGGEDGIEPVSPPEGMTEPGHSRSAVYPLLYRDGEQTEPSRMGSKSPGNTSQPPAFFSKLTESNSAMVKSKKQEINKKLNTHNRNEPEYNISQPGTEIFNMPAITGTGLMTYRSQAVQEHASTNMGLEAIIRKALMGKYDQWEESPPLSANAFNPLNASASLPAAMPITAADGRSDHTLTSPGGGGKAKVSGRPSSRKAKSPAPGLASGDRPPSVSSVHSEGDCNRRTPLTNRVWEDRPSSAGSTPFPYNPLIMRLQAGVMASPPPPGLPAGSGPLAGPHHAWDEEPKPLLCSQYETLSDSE
Photoreceptor-specific nuclear receptor, sequence (Q9Y5X4 whole entry): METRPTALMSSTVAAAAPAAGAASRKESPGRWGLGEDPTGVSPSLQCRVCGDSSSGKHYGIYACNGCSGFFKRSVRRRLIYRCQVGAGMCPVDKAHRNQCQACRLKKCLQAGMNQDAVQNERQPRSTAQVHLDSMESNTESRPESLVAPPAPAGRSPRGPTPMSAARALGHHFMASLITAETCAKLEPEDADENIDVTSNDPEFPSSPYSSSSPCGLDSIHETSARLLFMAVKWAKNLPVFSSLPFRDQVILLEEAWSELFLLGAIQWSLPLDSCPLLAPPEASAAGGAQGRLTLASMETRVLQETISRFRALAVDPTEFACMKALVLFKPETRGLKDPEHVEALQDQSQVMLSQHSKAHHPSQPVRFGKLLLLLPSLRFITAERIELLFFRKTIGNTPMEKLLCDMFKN

For the compound `CCSc1c([N+](=O)[O-])c(=O)oc2ccccc12`, the concentration at half-maximal activity (AC50) (commonly the midpoint of the concentration-response curve, whichever way the signal moves) in assay [1] was 23.4 µM (active).

Regarding `C[C@@H]1CN([C@@H](C)CO)C(=O)c2cccc(NC(=O)Nc3ccc(F)cc3)c2O[C@H]1CN(C)S(=O)(=O)c1ccc(Cl)cc1`, the AC50 in the assay with INS1 [2] is 7.24 µM (active); with INS1 [3], 27.4 µM (active); with INS1 [4] it was 95.8 µM (active).

On to `Cc1nc2ccc(NC(=O)c3oc4ccc(F)cc4c3C)cc2s1`, for which the IC50 – broadly, the point on the concentration scale where inhibition reaches its midpoint – was 8.73 µM (active) in assay [5]; > 39.8 µM (not active) in [6]; > 66.2 µM (inactive) with CHO-K1; > 49.7 µM (inactive) in assay [7]; 0.386 µM (active) in assay [8]; 1.76 µM (active) in assay [9]. Moreover, the IC50 on Orexin receptor type 2 [10] is > 88.8 µM (inactive); on Orexin receptor type 2 [11], > 50 µM (inactive).
